Read-outs that look alike come from different tables or passages of the source.
Assays:
[1] = test system: GAK; assay: Colony growth assay, GAK; assay type: cell-based; settings: Homo sapiens
From the text: (§1) FIG. 1. […] All other lines are BRAF wild-type and have activating mutations in RAS.
(§2) While oncogene-induced senescence due to overexpressed mutant RAS is an important tumor suppression mechanism, multiple variants of senescence exist (Ito, Y., et al. Trends Cell Biol 27:820-832 (2017); Lasry, A. & Ben-Neriah, Y. Trends Immunol 36:217-28 (2015); Ewald, J. A., et al. J Natl Cancer Inst 102:1536-46 (2010); Mooi, W. J. & Peeper, D.S. N Engl J Med. 355:1037-46 (2006)). With this in mind, experiments were conducted to determine whether paradoxical ERK activation, as driven by BRAFi exposure in the context of RAS-mutant cancers, could cause elevation of ERK pathway signaling to the point of causing senescence-like growth arrest akin to oncogene-induced senescence. To determine the effects of BRAFi treatment on RAS-mutant melanomas, a panel of four BRAFi were screened against eight RAS-mutant melanoma cell lines. the FDA-approved BRAFi vemurafenib, dabrafenib, encorafenib (Dummer, R., et al. J Clin Oncol 31(2013)), and the ‘paradox-breaker PLX8394, which was designed to elicit no paradoxical ERK activation (Zhang, C., et al. Nature 526:583-6 (2015)) were tested.

[2] = test system: 501mel; assay: Colony growth assay, 501mel; assay type: cell-based; settings: Homo sapiens, RAS G12D
From the text: as §1, §2

[3] = in vivo; cited from earlier work
[4] = test system: Sk-mel-119; assay: Colony growth assay, Sk-mel-119; assay type: cell-based; settings: Homo sapiens, Sk-mel-119, RAS Q61R
From the text: as §1, §2

[5] = test system: WM1366; assay: Colony growth assay, WM1366; assay type: cell-based; settings: Homo sapiens, WM1366, RAS Q61L
From the text: as §1, §2

[6] = test system: ICP 298; assay: Colony growth assay, ICP 298; assay type: cell-based; settings: Homo sapiens, ICP 298, RAS Q61L
From the text: as §1, §2

[7] = test system: A375; assay: Colony growth assay, A375 (BRAF mutant positive control); assay type: cell-based; settings: Homo sapiens, A-375
From the text: as §1, §2

[8] = test system: CP66; assay: Colony growth assay, CP66; assay type: cell-based; settings: Homo sapiens, CP66, RAS Q61K
From the text: as §1, §2

[9] = test system: MelJUSO; assay: Colony growth assay, MelJUSO; assay type: cell-based; settings: Homo sapiens, MEL-JUSO, RAS Q61L (HRASG13D)
From the text: as §1, §2

[10] = test system: RAS-mutant melanoma cell lines; assay: BRAFi screen against panel of RAS-mutant melanoma cell lines; assay type: cell-based, human; settings: for IC50: Homo sapiens, four 'BRAFi sensitive' RAS-mutant cell lines, read-out: IC50, growth inhibition
From the text: as §1, §2

[11] = test system: Sk-mel-2; assay: Colony growth assay, Sk-mel-2; assay type: cell-based; settings: Homo sapiens, Sk-mel-2, RAS Q61R
From the text: as §1, §2

[12] = cited from earlier work; for induction of cutaneous squamous cell carcinoma (cuSCC), patients: treated patients, averaged across multiple studies
[13] = test system: NRASQ61R-mutant melanoma cells (C57BL/6); assay: Transplanted NRASQ61R-mutant melanoma model in C57BL/6 mice; assay type: in vivo, mouse; settings: dabrafenib 3.5 mg/kg/day, RMP1-14 thrice weekly, start day 7
Protocol: FIG. 11. Transplanted NRASQ61R-mutant melanoma cells (C57BL/6) regress when dabrafenib-induced PEASA is combined with anti-PD1 immunotherapy. 1 million melanoma cells were injected in both flanks of C57BL/6 mice and therapy started at 7 days. […] mice per condition across 2 independent trials; mean tumor volume +/−SEM.
Because senescence is associated with a specific inflammatory gene expression signature, RNAseq was used to characterize responsive NRAS-mutant cell lines (IPC298, SK-MEL-119) following BRAFi exposure.

[14] = test system: IPC 298 and 501mel cell line xenografts; assay: IPC 298 and 501mel cell line xenografts in mice; assay type: in vivo, mouse; settings: 3.5 mg/kg daily; NOD/SCID gamma or athymic nude mice
Protocol: FIG. 4. […] (A) IPC 298 cell line xenografts were established in NOD/SCID gamma mice by co-injecting 1 million IPC 298 cells subcutaneously. Daily treatment with vehicle (n=20) or 3.5 mg/kg dabrafenib (n=20) was initiated at ‘Day 0,’ or 7 days post injection. Tumor volume was tracked by caliper measurement, calculated using V=½lw2. Student's t-test compares differences in tumor volumes at sacrifice in both conditions versus vehicle control (B) Representative image of mice from (A) at experimental endpoint. (C) Phospho-ERK western-blotting of tumor lysates from a short-term pharmacodynamic experiment from IPC 298 lysates harvested from mice treated orally with vehicle or 3.5 mg/kg dabrafenib for 5 days. (D) 501mel cell line xenografts were established in athymic nude mice by co-injecting 4 million 501mel cells mixed with 1 million normal dermal fibroblasts (NDF) per site. Mice were treated with vehicle (n=11) or 3.5 mg/kg dabrafenib (n=10), 12 days post injection. As engraftment with 501mel/NDF is inefficient, only tumors with diameters >3 mm at treatment initiation are detailed here. Student's t-test compares differences in tumor volumes at sacrifice in both conditions versus vehicle control. (E) Representative image of mice from (D) at experimental endpoint. […] Quantitative data represent at least three independent experiments. […]

[15] = test system: IL-6 secretion, 501 MEL melanoma cell lines; assay: IL-6 secreted in the media of 501 MEL cells; assay type: cell-based, human; settings: acute 24 hours or chronic 7 days, vs control-treated
From the text: Substantial increases in the secretion of this canonical senescence-associated cytokine are reliably measured in all settings, up to 3-fold in magnitude, showing essential features of the ERK-hyperactivation mediated senescence response.

[16] = GAK, RAS Q61K, colony growth, read-out: IC50
[17] = A375, RAS WT (BRAFV600E), colony growth, read-out: IC50

Row | SMILES | IC50 [1, 16] | IC50 [2] | plasma elimination half-life [3] | IC50 [4] | IC50 [5] | IC50 [6] | IC50 [7, 17] | IC50 [8] | IC50 [9] | IC50 [10] | IC50 [11] | activity against RAS mutant cell lines ([10]; RAS mutant cell lines) | induction of cutaneous squamous cell carcinoma (cuSCC), patients [12] | tumor response (tumor volume) [13] | tumor growth in vivo [14] | IC50 [7] | increase in secretion of IL-6 [15] | IC50 [1] | cuSCC harboring activating RAS mutations ([12]; cuSCC from treated patients, 10-20% in sporadic cuSCC)
1 | COC(=O)N[C@@H](C)CNc1nccc(-c2cn(C(C)C)nc2-c2cc(Cl)cc(NS(C)(=O)=O)c2F)n1 [Encorafenib] | 1600 nM | 7.5 nM | approximately 6 hours | 0.49 nM | > 2000 nM | 0.9 nM | 0.71 nM | 520 nM | 26 nM | < 100 nM | 550 nM |  |  |  |  |  |  |  | 
2 | O=C(c1c(F)ccc(NS(=O)(=O)N2CC[C@@H](F)C2)c1F)c1c[nH]c2ncc(-c3cnc(C4CC4)nc3)cc12 [PLX8394] | > 1000 nM | > 1000 nM |  | > 1000 nM | > 1000 nM | > 1000 nM | 180 nM | > 1000 nM | > 1000 nM |  | > 1000 nM | never showed activity |  |  |  |  |  |  | 
3 | CC(C)(C)c1nc(-c2cccc(NS(=O)(=O)c3c(F)cccc3F)c2F)c(-c2ccnc(N)n2)s1 [Dabrafenib] | 700 nM | 21 nM |  | 1.8 nM | > 5000 nM | 31 nM |  | 1000 nM | 100 nM | < 100 nM | 240 nM |  | 6% | partial responses, but progressive disease | prevents RAS-mutant tumor growth | 2.5 nM | up to 3 fold |  | 
4 | CCCS(=O)(=O)Nc1ccc(F)c(C(=O)c2c[nH]c3ncc(-c4ccc(Cl)cc4)cc23)c1F [Vemurafenib] |  | 3000 nM |  | 540 nM | > 6600 nM | 380 nM | 68 nM | > 6600 nM | > 6600 nM |  | 2500 nM |  | 22% |  |  |  |  | 5300 nM | Approximately 60%

Reference: patent US20220288201A1, “COMBINATION THERAPY FOR TREATING RAS-MUTANT CANCERS” (H. Lee Moffitt Cancer and Research Institute, Inc., priority 2019, published 2022)
